Results: patent US20230058623A1, “NOVEL HETEROARYL-TRIAZOLE COMPOUNDS AS PESTICIDES” (Bayer Aktiengesellschaft, priority 2019, published 2023)

Assays:
Type in all cases: in vivo
[1] = tested on: adult mosquitoes Aedes aegypti strain MONHEIM; assay: Aedes aegypti test (AEDSAE surface treatment & contact assay); details: 24 hours after contact, read-out: efficacy (mortality); for mortality at 4 mg/m2: surface concentration 4 mg/m^2, exposure 30 minutes; for mortality at 20 mg/m2: surface concentration 20 mg/m^2, exposure 30 minutes
Outline: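 Compound in acetone (2 mg/ml) with 2000 ppm RME dried onto glazed tile; adults exposed to the treated surface for 30 min. Percent mortality scored 24 h after contact.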

[2] = tested on: adult brown dog ticks (Rhipicephalus sanguineus); assay: Rhipicephalus sanguineus in-vitro contact test, adult brown dog ticks; details: application rate 5 μg/cm^2 (=500 g/ha), after 48 hours, read-out: activity (efficacy: ticks dead or moribund)
Outline: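 Compound in acetone was coated onto inner walls of glass tubes by rotation (2 h, 30 rpm); 900 ppm gives 5 μg/cm^2. After drying, 5-10 adult ticks were enclosed per tube at room temperature; after 48 h, heat-escape test at 45-50° C scored dead/moribund ticks as % efficacy.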

[3] = tested on: green peach aphid (Myzus persicae); assay: Myzus persicae spray test; details: foliar, 120 h, after 5 days, Chinese cabbage leaf disks; for mortality at 100 g/ha: application rate 100 g/ha, read-out: activity (mortality)
Outline: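 Chinese cabbage leaf disks infested with all aphid instars were sprayed with compound diluted in water containing emulsifier (1000 ppm). Mortality (%) was scored after 5 days, 100% meaning all aphids killed.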

[4] = tested on: larvae of the banded cucumber beetle (Diabrotica balteata); assay: Diabrotica balteata spray test; details: 168 h, after 7 days, wheat seeds, read-out: activity (efficacy: seedlings grown); for pest or weed control at 32 µg/disc, 100 g/ha: application rate 100 g/ha (=32 μg/well)
Outline: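 Wheat seeds germinated 1 day on agar were sprayed with compound diluted in water with 1000 ppm emulsifier, then infested with 10-20 Diabrotica balteata larvae. Efficacy in % scored after 7 days: 100% = seedlings grown as untreated, uninfected control; 0% = no seedlings grown.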

[5] = tested on: adult flies Musca domestica strain WHO-N; assay: Musca domestica test (MUSCDO surface treatment & contact assay); details: 24 hours after contact, read-out: efficacy (mortality); for mortality at 4 mg/m2: surface concentration 4 mg/m^2, exposure 30 minutes; for mortality at 20 mg/m2: surface concentration 20 mg/m^2, exposure 30 minutes
Outline: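 Compound dissolved at 2 mg/ml in acetone with 2000 ppm RME, applied to glazed tile and dried; adult flies exposed on the surface for 30 min. Percent mortality scored 24 h after contact.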

[6] = tested on: Rhipicephalus (Boophilus) microplus larvae (strain Parkhurst, resistant against synthetic pyrethroids); assay: Rhipicephalus (Boophilus) microplus in-vitro contact test, larval cattle tick; details: after 48 hours, read-out: activity (efficacy: larvae dead or moribund); for pest or weed control at 1 µg/cm2, 100 g/ha: application rate 1 μg/cm^2 (=100 g/ha); for pest or weed control at 5 µg/cm2, 500 g/ha: application rate 5 μg/cm^2 (=500 g/ha)
Outline: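 Acetone solutions were coated onto glass tube walls, giving 5 μg/cm^2 at 900 ppm. Once dry, 20–50 pyrethroid-resistant Parkhurst larvae were added per tube and held 48 h at 27 °C and 85% RH. Efficacy was scored by negative geotaxis as the percentage of dead or moribund larvae.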

[7] = tested on: larvae of the southern green stink bug (Nezara viridula); assay: Nezara viridula spray test; details: 96 h, after 4 days, barley plants; for mortality at 500 g/ha: application rate 500 g/ha, read-out: activity (mortality); for mortality at 100 g/ha: application rate 100 g/ha
Outline: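 Barley plants sprayed with the active compound in emulsifier-containing water, then infested with stink bug larvae. Mortality scored in % after 4 days, with 100% meaning all insects killed.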

[8] = tested on: adult unfed cat fleas (Ctenocephalides felis); assay: Ctenocephalides felis oral test; details: 48 h, read-out: activity (mortality)
Outline: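 About 20 adult unfed cat fleas fed through parafilm on citrated cattle blood containing compound (from a DMSO concentrate). Blood held at 37° C, fleas at room temperature. Mortality in % scored after 2 days.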

## C[C@H](NC(=O)c1cc(C(F)(F)F)cc(C(F)(F)F)c1)c1ncnn1-c1ccc(C(=O)N2CCS(=O)(=O)CC2)cn1 [Example I-75]
[1]
  mortality at 4 mg/m2: 80 to 100%
  mortality at 20 mg/m2: 80 to 100%
[2]
  pest or weed control at 5 µg/cm2, 500 g/ha: 100%
[3]
  mortality at 100 g/ha: 100%
[4]
  pest or weed control at 32 µg/disc, 100 g/ha: 100%
[5]
  mortality at 4 mg/m2: 80 to 100%
  mortality at 20 mg/m2: 80 to 100%
[6]
  pest or weed control at 1 µg/cm2, 100 g/ha: 100%
  pest or weed control at 5 µg/cm2, 500 g/ha: 100%
[7]
  mortality at 500 g/ha: 100%

## C[C@@H]1CN(C(=O)c2ccc(-n3ncnc3[C@H](C)NC(=O)c3cc(C(F)(F)F)cc(C(F)(F)F)c3)nc2)CCO1 [Example I-69]
[1]
  mortality at 20 mg/m2: 80 to 100%
[2]
  pest or weed control at 5 µg/cm2, 500 g/ha: 100%
[3]
  mortality at 100 g/ha: 90%
[4]
  pest or weed control at 32 µg/disc, 100 g/ha: 100%
[5]
  mortality at 4 mg/m2: 80 to 100%
  mortality at 20 mg/m2: 80 to 100%
[6]
  pest or weed control at 1 µg/cm2, 100 g/ha: 100%
  pest or weed control at 5 µg/cm2, 500 g/ha: 100%

## COC1CCCN(C(=O)c2ccc(-n3ncnc3[C@H](C)NC(=O)c3cc(C(F)(F)F)cc(C(F)(F)F)c3)nc2)C1 (some centres unmarked) [Example I-8]
[1]
  mortality at 20 mg/m2: 80 to 100%
[2]
  pest or weed control at 5 µg/cm2, 500 g/ha: 100%
[3]
  mortality at 100 g/ha: 90%
[5]
  mortality at 20 mg/m2: 80 to 100%
[6]
  pest or weed control at 1 µg/cm2, 100 g/ha: 100%
  pest or weed control at 5 µg/cm2, 500 g/ha: 100%
[8]
  mortality at 100 ppm: 100%
[7]
  mortality at 100 g/ha: 90%

## COC1CN(C(=O)c2ccc(-n3ncnc3[C@H](C)NC(=O)c3cc(C(F)(F)F)cc(C(F)(F)F)c3)nc2)C1 [Example I-15]
[1]
  mortality at 20 mg/m2: 80 to 100%
[2]
  pest or weed control at 5 µg/cm2, 500 g/ha: 100%
[3]
  mortality at 100 g/ha: 90%
[4]
  pest or weed control at 32 µg/disc, 100 g/ha: 80%
[5]
  mortality at 20 mg/m2: 80 to 100%
[6]
  pest or weed control at 1 µg/cm2, 100 g/ha: 100%
  pest or weed control at 5 µg/cm2, 500 g/ha: 100%
[8]
  mortality at 100 ppm: 100%

## C[C@H](NC(=O)c1cc(C(F)(F)F)cc(C(F)(F)F)c1)c1ncnn1-c1ccc(C(=O)N2CCCC2)cn1 [Example I-11]
[1]
  mortality at 4 mg/m2: 80 to 100%
  mortality at 20 mg/m2: 80 to 100%
[2]
  pest or weed control at 5 µg/cm2, 500 g/ha: 100%
[3]
  mortality at 100 g/ha: 90%
[4]
  pest or weed control at 32 µg/disc, 100 g/ha: 80%
[5]
  mortality at 20 mg/m2: 80 to 100%
[6]
  pest or weed control at 1 µg/cm2, 100 g/ha: 100%
  pest or weed control at 5 µg/cm2, 500 g/ha: 100%
[7]
  mortality at 100 g/ha: 100%

## C[C@H](NC(=O)c1cc(Cl)cc(C(F)(F)F)c1)c1ncnn1-c1ccc(C(=O)N2CCS(=O)(=O)CC2)cn1 [Example I-35]
[1]
  mortality at 4 mg/m2: 80 to 100%
  mortality at 20 mg/m2: 80 to 100%
[2]
  pest or weed control at 5 µg/cm2, 500 g/ha: 100%
[3]
  mortality at 100 g/ha: 90%
[4]
  pest or weed control at 32 µg/disc, 100 g/ha: 100%
[6]
  pest or weed control at 1 µg/cm2, 100 g/ha: 100%
  pest or weed control at 5 µg/cm2, 500 g/ha: 100%
[8]
  mortality at 100 ppm: 100%
[7]
  mortality at 100 g/ha: 100%

## Cc1nc([C@H](C)NC(=O)c2cc(C(F)(F)F)cc(C(F)(F)F)c2)n(-c2ccc(C(=O)N3CCOCC3)cn2)n1 [Example I-9, N-[(1S)-1-{3-methyl-1-[5-(morpholin-4-ylcarbonyl)pyridin-2-yl]-1H-1,2,4-triazol-5-yl}ethyl]-3,5-bis(trifluoromethyl)benzamide]
[1]
  mortality at 4 mg/m2: 80 to 100%
  mortality at 20 mg/m2: 80 to 100%
[2]
  pest or weed control at 5 µg/cm2, 500 g/ha: 100%
[3]
  mortality at 100 g/ha: 100%
[4]
  pest or weed control at 32 µg/disc, 100 g/ha: 100%
[5]
  mortality at 4 mg/m2: 80 to 100%
  mortality at 20 mg/m2: 80 to 100%
[6]
  pest or weed control at 1 µg/cm2, 100 g/ha: 100%
  pest or weed control at 5 µg/cm2, 500 g/ha: 100%
[7]
  mortality at 100 g/ha: 100%

## Cc1nc([C@H](C)NC(=O)c2cc(C(F)(F)F)cc(C(F)(F)F)c2)n(-c2ncc(C(=O)N3CCOCC3)s2)n1 [Example I-4]
[1]
  mortality at 20 mg/m2: 80 to 100%
[2]
  pest or weed control at 5 µg/cm2, 500 g/ha: 100%
[3]
  mortality at 100 g/ha: 90%
[4]
  pest or weed control at 32 µg/disc, 100 g/ha: 100%
[5]
  mortality at 4 mg/m2: 80 to 100%
[6]
  pest or weed control at 1 µg/cm2, 100 g/ha: 100%
  pest or weed control at 5 µg/cm2, 500 g/ha: 100%
[8]
  mortality at 100 ppm: 100%

## C[C@@H]1CN(C(=O)c2ccc(-n3ncnc3[C@H](C)NC(=O)c3cc(OC(F)(F)F)cc(C4CC4)c3)nc2)C[C@H](C)O1 [Example I-114]
[1]
  mortality at 20 mg/m2: 80 to 100%
[2]
  pest or weed control at 5 µg/cm2, 500 g/ha: 100%
[3]
  mortality at 100 g/ha: 100%
[4]
  pest or weed control at 32 µg/disc, 100 g/ha: 100%
[5]
  mortality at 4 mg/m2: 80 to 100%
  mortality at 20 mg/m2: 80 to 100%
[6]
  pest or weed control at 1 µg/cm2, 100 g/ha: 100%
  pest or weed control at 5 µg/cm2, 500 g/ha: 100%
[8]
  mortality at 100 ppm: 100%

## CC1CN(C(=O)c2ccc(-n3ncnc3[C@H](C)NC(=O)c3cc(C(F)(F)F)cc(C(F)(F)F)c3)nc2)CC(C)O1 (some centres unmarked) [Example I-5]
[1]
  mortality at 4 mg/m2: 80 to 100%
  mortality at 20 mg/m2: 80 to 100%
[2]
  pest or weed control at 5 µg/cm2, 500 g/ha: 100%
[3]
  mortality at 100 g/ha: 100%
[5]
  mortality at 4 mg/m2: 80 to 100%
  mortality at 20 mg/m2: 80 to 100%
[6]
  pest or weed control at 1 µg/cm2, 100 g/ha: 100%
  pest or weed control at 5 µg/cm2, 500 g/ha: 100%
[8]
  mortality at 100 ppm: 100%

## Cc1nc([C@H](C)NC(=O)c2cc(C(F)(F)F)cc(C(F)(F)F)c2)n(-c2ccc(C(=O)N3CCS(=O)(=O)CC3)cn2)n1 [Example I-76]
[1]
  mortality at 4 mg/m2: 80 to 100%
  mortality at 20 mg/m2: 80 to 100%
[2]
  pest or weed control at 5 µg/cm2, 500 g/ha: 100%
[3]
  mortality at 100 g/ha: 90%
[5]
  mortality at 4 mg/m2: 80 to 100%
  mortality at 20 mg/m2: 80 to 100%
[6]
  pest or weed control at 1 µg/cm2, 100 g/ha: 100%
  pest or weed control at 5 µg/cm2, 500 g/ha: 100%
[7]
  mortality at 500 g/ha: 100%

## C[C@H](NC(=O)c1cc(C(F)(F)F)cc(C(F)(F)F)c1)c1ncnn1-c1ccc(C(=O)N2CCOCC2)cn1 [Example I-2]
[1]
  mortality at 4 mg/m2: 80 to 100%
  mortality at 20 mg/m2: 80 to 100%
[2]
  pest or weed control at 5 µg/cm2, 500 g/ha: 100%
[3]
  mortality at 100 g/ha: 100%
[3]; application rate 500 g/ha
  mortality at 500 g/ha: 100%
[4]
  pest or weed control at 32 µg/disc, 100 g/ha: 100%
[4]; application rate 500 g/ha (=160 μg/well)
  pest or weed control at 160 µg/disc, 500 g/ha: 100%
[5]
  mortality at 4 mg/m2: 80 to 100%
  mortality at 20 mg/m2: 80 to 100%
[6]
  pest or weed control at 1 µg/cm2, 100 g/ha: 100%
  pest or weed control at 5 µg/cm2, 500 g/ha: 100%
[7]
  mortality at 100 g/ha: 100%
  mortality at 500 g/ha: 100%
